Experimental data: patent US5254577A, “Aminomethyloxooxazolidinyl arylbenzene derivatives useful as antibacterial agents” (The Du Pont Merck Pharmaceutical Company, priority 1992, dated 1993)
Converted amounts (≈) assume the structure as drawn. Counter-ions that a name gives are not always drawn. Like-named read-outs stand apart in the source and are kept apart here.

Legend:
Staphylococcus aureus [1] = assay: In vivo activity against Staphylococcus aureus in an acute lethal mouse model; settings: mice infected intraperitoneally, dosed 1 h and 4 h post-infection, survivors on seventh day
Experimental: The in vivo potency of these compounds is exemplified by the data summarized in Table X. Determinations of in vivo efficacy are performed by inoculating mice intraperitoneally with cultures of the infecting organism diluted to produce 100% mortality in control animals within twenty-four hours. The culture of S. aureus used to infect the animals was diluted to the required bacterial density using 5% aqueous hog gastric mucin. The compounds are dissolved or suspended in 0.25% aqueous Methocel® (Methocel®: Hydroxypropyl Methylcullulose, E15 Premium, Dow Chemical Company) for oral administration or sterile distilled water containing 5% dimethylsulfoxide (Fisher Scientific Company, Fairlawn, N.J.) for subcutaneous administration. The mice are dosed at one hour and at four hours post-infection. Mortality is recorded daily until test determination seven days post infection. The number of survivors in each treatment group on the seventh day after infection is used in the calculation of the ED50, the dose of compound that protects 50% of the mice (Litchfield,J. T. and Wildoxon. A simulated method for evaluating dose-effect experiments. J. Pharmacol Exp. Ther., 98:99-113, 1949).

Staphylococcus aureus [2] = assay: In vitro broth microdilution, 24-hour minimal inhibitory concentration (MIC); assay type: cell-based; settings: Mueller-Hinton broth; for MIC: read-out: Minimum Inhibitory Concentration
From the text: (§1) A standard microdilution method (National Committee for Clinical Standards. Tentative standard M7-T. Standard methods for dilution antimicrobial susceptibility tests for bacteria that grow aerobically. National Committee for Clinical Laboratory Standards, Villanova, Pa. 1982) with Mueller-Hinton broth is used to determine the 24-hour minimal inhibitory concentrations (MIC's) for test strains of Staphylococcus aureus and Escherichia coli.

Escherichia coli = assay: as above; assay type: cell-based; settings: Mueller-Hinton broth, read-out: Minimum Inhibitory Concentration
From the text: as §1

[3] = Staphylococcus aureus, 168 h, Oral Administration, read-out: ED50
[4] = Staphylococcus aureus, sc, 168 h, Subcutaneous Administration, read-out: ED50

Row | Compound | ED50 (Staphylococcus aureus [1]; [3]) | ED50 (Staphylococcus aureus [1]; [4]) | MIC (Staphylococcus aureus [2]) | MIC (Escherichia coli) | ED50 (Staphylococcus aureus [1]; Subcutaneous Administration, 10080 min) | Minimum Inhibitory Concentration (Staphylococcus aureus [2])
1 | CC(=O)NC[C@H]1CN(c2ccc(-c3ccc(C(O)CCN4CCN(C)CC4)cc3)cc2)C(=O)O1 (stereo partly drawn) [Example 61] | 47.4 mg/kg | 2.7 mg/kg | 2 µg/mL (≈ 4.29 µM) | > 128 µg/mL | – | –
2 | CCc1ccc(-c2ccc(N3C[C@H](CNC(C)=O)OC3=O)cc2)cc1 [Example 114, (l)-N-[3-(4-(4'-Ethylphenyl)phenyl)-2-oxooxazolidin-5-ylmethyl]acetamide] | 8.1 mg/kg | > 100 mg/kg | 0.5 µg/mL (≈ 1.48 µM) | > 128 µg/mL | – | –
3 | CC(=O)NC[C@H]1CN(c2ccc(-c3ccc([S+](C)[O-])cc3)cc2)C(=O)O1 (single isomer, unassigned) [Example 68, (l)-N-[3-(4-(4'-methylsulfinylphenyl)phenyl)-2-oxooxazolidin-5-ylmethyl]acetamide] | 2.2 mg/kg | 0.7 mg/kg | 0.25 µg/mL (≈ 0.671 µM) | > 128 µg/mL | – | –
4 | CC(=O)NC[C@H]1CN(c2ccc(-c3ccccc3)cc2)C(=O)O1 [Example 3, (l)-N-[3-(4-Phenylphenyl)-2-oxooxazolidin-5-ylmethyl]acetamide] | 2.9 mg/kg | 2 mg/kg | 0.5 µg/mL (≈ 1.61 µM) | > 128 µg/mL | – | –
5 | CCCCCN(CCCCC)Cc1ccc(-c2ccc(N3C[C@H](CNC(C)=O)OC3=O)cc2)cc1 [Example 47] | – | – | 0.5 µg/mL (≈ 1.04 µM) | > 128 µg/mL | – | –
6 | CC(=O)NC[C@H]1CN(c2ccc(-c3cccc[n+]3[O-])cc2)C(=O)O1 [Example 87] | 16.1 mg/kg | 9.8 mg/kg | 32 µg/mL (≈ 97.8 µM) | > 128 µg/mL | – | –
7 | CC(=O)NC[C@H]1CN(c2ccc(-c3ccc(C(=O)CCC(=O)O)cc3)cc2)C(=O)O1 [Example 9] | > 90 mg/kg | 16.8 mg/kg | < 0.13 µg/mL | > 128 µg/mL | – | –
8 | CC(=O)NC[C@H]1CN(c2ccc(-c3ccc(C(C)=O)cc3)cc2)C(=O)O1 [Example 4, (l)-N-[3-(4-(4'-Acetylphenyl)phenyl)-2-oxooxazolidin-5-ylmethyl]acetamide] | 22 mg/kg | 39.7 mg/kg | 0.5 µg/mL (≈ 1.42 µM) | > 128 µg/mL | – | –
9 | CC(=O)NC[C@H]1CN(c2ccc(-c3cccc(N(C)C)c3)cc2)C(=O)O1 [Example 74] | – | 17.1 mg/kg | 8 µg/mL (≈ 22.6 µM) | > 128 µg/mL | – | –
10 | CCCCCCCCN=Cc1ccc(-c2ccc(N3C[C@H](CNC(C)=O)OC3=O)cc2)cc1 [Example 48] | – | – | < 0.13 µg/mL | > 128 µg/mL | – | –
11 | CCCCCCCCNCc1ccc(-c2ccc(N3C[C@H](CNC(C)=O)OC3=O)cc2)cc1 [Example 49] | 65.2 mg/kg | > 90 mg/kg | 1 µg/mL (≈ 2.21 µM) | > 128 µg/mL | – | –
12 | CC(=O)NC[C@H]1CN(c2ccc(-c3ccc(C(C)OC(=O)CCC(=O)O)cc3)cc2)C(=O)O1 (stereo partly drawn) [Example 30] | – | – | – | – | 9.8 mg/kg | 4 µg/mL
13 | CC(=O)NC[C@H]1CN(c2ccc(-c3ccno3)cc2)C(=O)O1 [Example 130, (l)-N-[3-[4-(5-Isoxazolyl)phenyl]-2-oxooxazolidin-5-ylmethyl]acetamide] | 6 mg/kg | 6 mg/kg | 1 µg/mL (≈ 3.32 µM) | > 128 µg/mL | – | –
14 | CC(=O)NC[C@H]1CN(c2ccc(-c3ccc(C(O)CCN(C)C)cc3)cc2)C(=O)O1 (single isomer, unassigned) [Example 58, (l)-N-[3-(4-(4'-(3-N,N-Dimethylamino-1-hydroxypropyl)phenyl)phenyl)-2-oxooxazolidin-5-ylmethyl]acetamide] | 13.8 mg/kg | 2 mg/kg | 1 µg/mL (≈ 2.43 µM) | > 128 µg/mL | – | –
15 | CCN(CC)Cc1ccc(-c2ccc(N3C[C@H](CNC(C)=O)OC3=O)cc2)cc1 [Example 43, (l)-N-[3-(4-(4'-diethylaminomethylphenyl)phenyl)-2-oxooxazolidin-5-ylmethyl]acetamide] | 6.4 mg/kg | 3.7 mg/kg | 4 µg/mL (≈ 10.1 µM) | > 128 µg/mL | – | –
16 | CC(=O)NC[C@H]1CN(c2ccc(-c3ccc(C(C)=NOC(=O)CCC(=O)O)cc3)cc2)C(=O)O1 [Example 23, Sodium Salt of Succinate Hemiester of (l)-N-[3-(4-(4'-(1-Hydroxyiminoethyl)phenyl)phenyl)-2-oxooxazolidin-5-ylmethyl]acetamide] | 17.3 mg/kg | 24.3 mg/kg | 1 µg/mL | > 128 µg/mL | – | –

Row | Compound | ED50 (Staphylococcus aureus [1]; [3]) | ED50 (Staphylococcus aureus [1]; [4]) | MIC (Staphylococcus aureus [2]) | MIC (Escherichia coli) | ED50 (Staphylococcus aureus [1]; Subcutaneous Administration, 10080 min) | Minimum Inhibitory Concentration (Staphylococcus aureus [2])
17 | CC(=O)NC[C@H]1CN(c2ccc(-c3ccc(C(=O)CCN4CCN(C)CC4)cc3)cc2)C(=O)O1 [Example 60] | 30 mg/kg | 5.5 mg/kg | 1 µg/mL (≈ 2.15 µM) | > 128 µg/mL | – | –
18 | CC(=O)NC[C@H]1CN(c2ccc(-c3ccc[n+]([O-])c3)cc2)C(=O)O1 [Example 89] | 2 mg/kg | < 3.3 mg/kg | 2 µg/mL (≈ 6.11 µM) | > 128 µg/mL | – | –
19 | CC(=O)NC[C@H]1CN(c2ccc(-c3ccccn3)cc2)C(=O)O1 [Example 86] | – | 15.5 mg/kg | 2 µg/mL (≈ 6.42 µM) | > 128 µg/mL | – | –
20 | CC(=O)NC[C@H]1CN(c2ccc(-c3cc(O)ccc3O)cc2)C(=O)O1 [Example 113, (l)-N-[3-(4-(2',5'-Dihydroxyphenyl)phenyl)-2-oxooxazolidin-5-ylmethyl]acetamide] | > 90 mg/kg | 68.3 mg/kg | 16 µg/mL (≈ 46.7 µM) | > 128 µg/mL | – | –
21 | CCCCNCc1ccc(-c2ccc(N3C[C@H](CNC(C)=O)OC3=O)cc2)cc1 [Example 45] | – | 13.9 mg/kg | 0.5 µg/mL (≈ 1.26 µM) | > 128 µg/mL | – | –
22 | CC(=O)NC[C@H]1CN(c2ccc(-c3ccc(-c4nn[nH]n4)cc3)cc2)C(=O)O1 [Example 38, (l)-N-[3-(4-(4'-(5-Tetrazolyl)phenyl)phenyl)-2-oxooxazolidin-5-ylmethyl]acetamide] | – | > 90 mg/kg | 64 µg/mL (≈ 169 µM) | > 128 µg/mL | – | –
23 | CC(=O)NC[C@H]1CN(c2ccc(-c3cccc([N+](=O)[O-])c3)cc2)C(=O)O1 [Example 119] | 6.2 mg/kg | 5 mg/kg | < 0.13 µg/mL | > 128 µg/mL | – | –
24 | CC(=O)NC[C@H]1CN(c2ccc(-c3ccc(C(C)OC(=O)CCC(=O)O)cc3)cc2)C(=O)O1 (stereo partly drawn) [Example 29] | 16.1 mg/kg | 9.8 mg/kg | 4 µg/mL (≈ 8.8 µM) | > 128 µg/mL | – | –
25 | CCc1cccc(-c2ccc(N3C[C@H](CNC(C)=O)OC3=O)cc2)c1 [Example 70] | 17 mg/kg | 10 mg/kg | 2 µg/mL (≈ 5.91 µM) | > 128 µg/mL | – | –
26 | CC(=O)NC[C@H]1CN(c2ccc(-c3ccc(C(C)NN4CCN(C)CC4)cc3)cc2)C(=O)O1 (single isomer, unassigned) [Example 26, (l)-N-[3-(4-(4'-(1-(4-Methylpiperazinylamino)ethyl))phenyl)phenyl-2-oxooxazolidin-5-ylmethyl]acetamide] | – | – | 1 µg/mL (≈ 2.21 µM) | > 128 µg/mL | – | –
27 | CC(=O)NCC1CN(c2ccc(-c3ccc(N(C)C)cc3)cc2)C(=O)O1 (stereo not drawn) [Example 115] | – | – | 16 µg/mL (≈ 45.3 µM) | > 128 µg/mL | – | –
28 | CC(=O)NC[C@H]1CN(c2ccc(-c3cncc4ccccc34)cc2)C(=O)O1 [Example 92] | – | – | 2 µg/mL (≈ 5.53 µM) | > 128 µg/mL | – | –
29 | COc1ccc(-c2ccc(N3C[C@H](CNC(C)=O)OC3=O)cc2)cc1 [Example 75] | – | – | < 0.13 µg/mL | > 128 µg/mL | – | –
30 | CC(=O)NC[C@H]1CN(c2ccc(-c3ccc(C(=O)CC(C)(C)C(=O)O)cc3)cc2)C(=O)O1 [Example 10] | – | – | 0.5 µg/mL (≈ 1.14 µM) | > 128 µg/mL | – | –
31 | CC(=O)NC[C@H]1CN(c2ccc(-c3ccc(OCCN(C)C)cc3)cc2)C(=O)O1 [Example 66, (l)-N-[3-(4-(4'-N,N-Dimethylaminoethyloxyphenyl)phenyl)-2-oxooxazolidin-5-ylmethyl]acetamide] | – | – | 0.5 µg/mL (≈ 1.26 µM) | > 128 µg/mL | – | –
